Assays:
[1] = tested on: Escherichia coli (ATCC 25922); experiment: Antibiotic susceptibility by glucose consumption in culture medium, blood culture bottle inoculum (Example 1); assay type: cell-based; conditions: for Glucose concentration t=60: 60 minutes; for Glucose concentration t=120: 120 minutes; for Glucose concentration t=180: 180 minutes; for dC/dT: rate of change in glucose concentration;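 for dC/dT: rate calculated between the 60 and 180 min readings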
Procedure: (§1) Strains of Escherichia coli (ATCC 25922), Enterococcus faecalis (ATCC 29212) and Staphylococcus aureus (ATCC 29213) were inoculated in blood culture bottles (SVA, Uppsala, Sweden) and cultivated according to the manufacturer's instructions until positive.
(§2) Medium from each blood culture bottle was diluted 1:100 with cation adjusted Mueller-Hinton broth (SVA, Uppsala, Sweden) supplemented with glucose to a concentration of 1.0 mg/mL.
(§3) Table 1: Concentrations of antibiotic agents are given in µg/mL.
(§4) Glucose concentrations were measured at 0, 60, 120, 180, and 240 minutes using a WaveSense Jazz glucometer (AgaMatrix, Inc., Salem, NH, USA) with accompanying test strips.
(§5) Susceptibility scores corresponding to MIC values were calculated as described above. A 80% threshold was applied, i.e. the lowest concentration of antibiotic that entailed a rate of change in glucose concentration that was equal to or less than 80% of the reference was selected as the Minimal Inhibitory Concentration. The rate of change was calculated between the measurements at 60 and 180 minutes.

[2] = tested on: Staphylococcus aureus (ATCC 29213); experiment: as above; assay type: cell-based; conditions: for Glucose concentration t=60: 60 minutes; for Glucose concentration t=120: 120 minutes; for Glucose concentration t=180: 180 minutes; for Glucose concentration t=240: 240 minutes; for dC/dT: rate of change in glucose concentration;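 for dC/dT: rate calculated between the 60 and 180 min readings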
Procedure: as §1, §2, §3, §4, §5

CN[C@H](CC(C)C)C(=O)N[C@H]1C(=O)N[C@@H](CC(N)=O)C(=O)N[C@H]2C(=O)N[C@H]3C(=O)N[C@H](C(=O)N[C@H](C(=O)O)c4cc(O)cc(O)c4-c4cc3ccc4O)[C@H](O)c3ccc(c(Cl)c3)Oc3cc2cc(c3O[C@@H]2O[C@H](CO)[C@@H](O)[C@H](O)[C@H]2O[C@H]2C[C@](C)(N)[C@H](O)[C@H](C)O2)Oc2ccc(cc2Cl)[C@H]1O [Vancomycin]
F=the rate of change in glucose concentration in relation to the reference ([1]; [Ab] 0,5 µg/mL): 65% | Glucose concentration t=60 ([1]; [Ab] 0,5 µg/mL): 149 | Glucose concentration t=120 ([1]; [Ab] 0,5 µg/mL): 145 | Glucose concentration t=180 ([1]; [Ab] 0,5 µg/mL): 68 | dC/dT ([1]; [Ab] 0,5 µg/mL): 41 | F=the rate of change in glucose concentration in relation to the reference ([1]; [Ab] 0,25 µg/mL): 68% | Glucose concentration t=60 ([1]; [Ab] 0,25 µg/mL): 150 | Glucose concentration t=120 ([1]; [Ab] 0,25 µg/mL): 145 | Glucose concentration t=180 ([1]; [Ab] 0,25 µg/mL): 66 | dC/dT ([1]; [Ab] 0,25 µg/mL): 42 | F=the rate of change in glucose concentration in relation to the reference ([1]; [Ab] 1 µg/mL): 73% | Glucose concentration t=60 ([1]; [Ab] 1 µg/mL): 155 | Glucose concentration t=120 ([1]; [Ab] 1 µg/mL): 149 | Glucose concentration t=180 ([1]; [Ab] 1 µg/mL): 65 | dC/dT ([1]; [Ab] 1 µg/mL): 45 | F=the rate of change in glucose concentration in relation to the reference ([1]; [Ab] 2 µg/mL): 65% | Glucose concentration t=60 ([1]; [Ab] 2 µg/mL): 147 | Glucose concentration t=120 ([1]; [Ab] 2 µg/mL): 151 | Glucose concentration t=180 ([1]; [Ab] 2 µg/mL): 67 | dC/dT ([1]; [Ab] 2 µg/mL): 40 | F=the rate of change in glucose concentration in relation to the reference ([1]; [Ab] 4 µg/mL): 69% | Glucose concentration t=60 ([1]; [Ab] 4 µg/mL): 147 | Glucose concentration t=120 ([1]; [Ab] 4 µg/mL): 145 | Glucose concentration t=180 ([1]; [Ab] 4 µg/mL): 61 | dC/dT ([1]; [Ab] 4 µg/mL): 43 | F=the rate of change in glucose concentration in relation to the reference ([1]; [Ab] 8 µg/mL): 87% | Glucose concentration t=60 ([1]; [Ab] 8 µg/mL): 159 | Glucose concentration t=120 ([1]; [Ab] 8 µg/mL): 147 | Glucose concentration t=180 ([1]; [Ab] 8 µg/mL): 51 | dC/dT ([1]; [Ab] 8 µg/mL): 54 | F=the rate of change in glucose concentration in relation to the reference ([1]; [Ab] 0,125 µg/mL): 71% | Glucose concentration t=60 ([1]; [Ab] 0,125 µg/mL): 153 | Glucose concentration t=120 ([1]; [Ab] 0,125 µg/mL): 154 | Glucose concentration t=180 ([1]; [Ab] 0,125 µg/mL): 65 | dC/dT ([1]; [Ab] 0,125 µg/mL): 44 | F=the rate of change in glucose concentration in relation to the reference ([1]; [Ab] 0,0625 µg/mL): 67% | Glucose concentration t=60 ([1]; [Ab] 0,0625 µg/mL): 148 | Glucose concentration t=120 ([1]; [Ab] 0,0625 µg/mL): 144 | Glucose concentration t=180 ([1]; [Ab] 0,0625 µg/mL): 65 | dC/dT ([1]; [Ab] 0,0625 µg/mL): 42 | F=the rate of change in glucose concentration in relation to the reference ([2]; [Ab] 0,5 µg/mL): 84% | Glucose concentration t=60 ([2]; [Ab] 0,5 µg/mL): 156 | Glucose concentration t=120 ([2]; [Ab] 0,5 µg/mL): 142 | Glucose concentration t=180 ([2]; [Ab] 0,5 µg/mL): 100 | Glucose concentration t=240 ([2]; [Ab] 0,5 µg/mL): 51 | dC/dT ([2]; [Ab] 0,5 µg/mL): 28 | F=the rate of change in glucose concentration in relation to the reference ([2]; [Ab] 0,25 µg/mL): 75% | Glucose concentration t=60 ([2]; [Ab] 0,25 µg/mL): 142 | Glucose concentration t=120 ([2]; [Ab] 0,25 µg/mL): 133 | Glucose concentration t=180 ([2]; [Ab] 0,25 µg/mL): 92 | Glucose concentration t=240 ([2]; [Ab] 0,25 µg/mL): 42 | dC/dT ([2]; [Ab] 0,25 µg/mL): 25 | F=the rate of change in glucose concentration in relation to the reference ([2]; [Ab] 1 µg/mL): 96% | Glucose concentration t=60 ([2]; [Ab] 1 µg/mL): 161 | Glucose concentration t=120 ([2]; [Ab] 1 µg/mL): 140 | Glucose concentration t=180 ([2]; [Ab] 1 µg/mL): 97 | Glucose concentration t=240 ([2]; [Ab] 1 µg/mL): 51 | dC/dT ([2]; [Ab] 1 µg/mL): 32 | F=the rate of change in glucose concentration in relation to the reference ([2]; [Ab] 2 µg/mL): 88% | Glucose concentration t=60 ([2]; [Ab] 2 µg/mL): 160 | Glucose concentration t=120 ([2]; [Ab] 2 µg/mL): 143 | Glucose concentration t=180 ([2]; [Ab] 2 µg/mL): 101 | Glucose concentration t=240 ([2]; [Ab] 2 µg/mL): 53 | dC/dT ([2]; [Ab] 2 µg/mL): 30 | F=the rate of change in glucose concentration in relation to the reference ([2]; [Ab] 4 µg/mL): 39% | Glucose concentration t=60 ([2]; [Ab] 4 µg/mL): 157 | Glucose concentration t=120 ([2]; [Ab] 4 µg/mL): 147 | Glucose concentration t=180 ([2]; [Ab] 4 µg/mL): 131 | Glucose concentration t=240 ([2]; [Ab] 4 µg/mL): 107 | dC/dT ([2]; [Ab] 4 µg/mL): 13 | F=the rate of change in glucose concentration in relation to the reference ([2]; [Ab] 8 µg/mL): 6% | Glucose concentration t=60 ([2]; [Ab] 8 µg/mL): 150 | Glucose concentration t=120 ([2]; [Ab] 8 µg/mL): 150 | Glucose concentration t=180 ([2]; [Ab] 8 µg/mL): 146 | Glucose concentration t=240 ([2]; [Ab] 8 µg/mL): 149 | dC/dT ([2]; [Ab] 8 µg/mL): 2 | F=the rate of change in glucose concentration in relation to the reference ([2]; [Ab] 16 µg/mL): 7% | Glucose concentration t=60 ([2]; [Ab] 16 µg/mL): 157 | Glucose concentration t=120 ([2]; [Ab] 16 µg/mL): 153 | Glucose concentration t=180 ([2]; [Ab] 16 µg/mL): 152 | Glucose concentration t=240 ([2]; [Ab] 16 µg/mL): 149 | dC/dT ([2]; [Ab] 16 µg/mL): 3 | F=the rate of change in glucose concentration in relation to the reference ([2]; [Ab] 32 µg/mL): 13% | Glucose concentration t=60 ([2]; [Ab] 32 µg/mL): 157 | Glucose concentration t=120 ([2]; [Ab] 32 µg/mL): 140 | Glucose concentration t=180 ([2]; [Ab] 32 µg/mL): 148 | Glucose concentration t=240 ([2]; [Ab] 32 µg/mL): 146 | dC/dT ([2]; [Ab] 32 µg/mL): 5

From patent EP3717657B1, “A SYSTEM FOR ASSESSING MICROBIAL SUSCEPTIBILITY TO ANTIBIOTIC AGENTS” (Ascilion AB, priority 2017, dated 2019)
